Data reported in patent US9676760B2, “Fused heterocyclic compounds as ion channel modulators” (Gilead Sciences, Inc., priority 2011, dated 2017).
Like-named read-outs stand apart in the source and are kept apart here.

Legend:
Type in all cases: cell-based
[1] = biological target: wild-type human cardiac sodium channel, hNav1.5 (Homo sapiens, UniProt Q14524); assay: Late INa screening assay (QPatch whole cell patch clamp, HEK293)
Summary of the method: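 HEK293 stably expressing hNav1.5 without beta subunits, recorded at 23-25° C. Late current was induced by 10 μM tefluthrin. Cells were depolarized from −120 mV to −20 mV for 250 ms at 0.1 Hz. Compounds were tested at 1 μM in extracellular solution, with baseline taken in 0Na-ECF; output is percent block of late INa.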

[2] = biological target: T1, hNav 1.1 sodium channel isoform (Homo sapiens, UniProt P35498); assay: hNav1.1 whole-cell voltage-clamp assay; conditions: for inhibition at 1 µM: use-dependent block, 10 Hz, read-out: NAV1.1* UDB-10HZ
T1 construct: expressed in transfected cells; host or cells: HEK293, transient transfection (Qiagen Superfect)

[3] = biological target: T2, hNav 1.2 sodium channel isoform (Homo sapiens, UniProt Q99250); assay: hNav1.2 whole-cell voltage-clamp assay; conditions: use-dependent block, 10 Hz, read-out: NAV1.2* UDB-10HZ
T2 construct: expressed in transfected cells
T2 sequence (Q99250 whole entry, canonical isoform): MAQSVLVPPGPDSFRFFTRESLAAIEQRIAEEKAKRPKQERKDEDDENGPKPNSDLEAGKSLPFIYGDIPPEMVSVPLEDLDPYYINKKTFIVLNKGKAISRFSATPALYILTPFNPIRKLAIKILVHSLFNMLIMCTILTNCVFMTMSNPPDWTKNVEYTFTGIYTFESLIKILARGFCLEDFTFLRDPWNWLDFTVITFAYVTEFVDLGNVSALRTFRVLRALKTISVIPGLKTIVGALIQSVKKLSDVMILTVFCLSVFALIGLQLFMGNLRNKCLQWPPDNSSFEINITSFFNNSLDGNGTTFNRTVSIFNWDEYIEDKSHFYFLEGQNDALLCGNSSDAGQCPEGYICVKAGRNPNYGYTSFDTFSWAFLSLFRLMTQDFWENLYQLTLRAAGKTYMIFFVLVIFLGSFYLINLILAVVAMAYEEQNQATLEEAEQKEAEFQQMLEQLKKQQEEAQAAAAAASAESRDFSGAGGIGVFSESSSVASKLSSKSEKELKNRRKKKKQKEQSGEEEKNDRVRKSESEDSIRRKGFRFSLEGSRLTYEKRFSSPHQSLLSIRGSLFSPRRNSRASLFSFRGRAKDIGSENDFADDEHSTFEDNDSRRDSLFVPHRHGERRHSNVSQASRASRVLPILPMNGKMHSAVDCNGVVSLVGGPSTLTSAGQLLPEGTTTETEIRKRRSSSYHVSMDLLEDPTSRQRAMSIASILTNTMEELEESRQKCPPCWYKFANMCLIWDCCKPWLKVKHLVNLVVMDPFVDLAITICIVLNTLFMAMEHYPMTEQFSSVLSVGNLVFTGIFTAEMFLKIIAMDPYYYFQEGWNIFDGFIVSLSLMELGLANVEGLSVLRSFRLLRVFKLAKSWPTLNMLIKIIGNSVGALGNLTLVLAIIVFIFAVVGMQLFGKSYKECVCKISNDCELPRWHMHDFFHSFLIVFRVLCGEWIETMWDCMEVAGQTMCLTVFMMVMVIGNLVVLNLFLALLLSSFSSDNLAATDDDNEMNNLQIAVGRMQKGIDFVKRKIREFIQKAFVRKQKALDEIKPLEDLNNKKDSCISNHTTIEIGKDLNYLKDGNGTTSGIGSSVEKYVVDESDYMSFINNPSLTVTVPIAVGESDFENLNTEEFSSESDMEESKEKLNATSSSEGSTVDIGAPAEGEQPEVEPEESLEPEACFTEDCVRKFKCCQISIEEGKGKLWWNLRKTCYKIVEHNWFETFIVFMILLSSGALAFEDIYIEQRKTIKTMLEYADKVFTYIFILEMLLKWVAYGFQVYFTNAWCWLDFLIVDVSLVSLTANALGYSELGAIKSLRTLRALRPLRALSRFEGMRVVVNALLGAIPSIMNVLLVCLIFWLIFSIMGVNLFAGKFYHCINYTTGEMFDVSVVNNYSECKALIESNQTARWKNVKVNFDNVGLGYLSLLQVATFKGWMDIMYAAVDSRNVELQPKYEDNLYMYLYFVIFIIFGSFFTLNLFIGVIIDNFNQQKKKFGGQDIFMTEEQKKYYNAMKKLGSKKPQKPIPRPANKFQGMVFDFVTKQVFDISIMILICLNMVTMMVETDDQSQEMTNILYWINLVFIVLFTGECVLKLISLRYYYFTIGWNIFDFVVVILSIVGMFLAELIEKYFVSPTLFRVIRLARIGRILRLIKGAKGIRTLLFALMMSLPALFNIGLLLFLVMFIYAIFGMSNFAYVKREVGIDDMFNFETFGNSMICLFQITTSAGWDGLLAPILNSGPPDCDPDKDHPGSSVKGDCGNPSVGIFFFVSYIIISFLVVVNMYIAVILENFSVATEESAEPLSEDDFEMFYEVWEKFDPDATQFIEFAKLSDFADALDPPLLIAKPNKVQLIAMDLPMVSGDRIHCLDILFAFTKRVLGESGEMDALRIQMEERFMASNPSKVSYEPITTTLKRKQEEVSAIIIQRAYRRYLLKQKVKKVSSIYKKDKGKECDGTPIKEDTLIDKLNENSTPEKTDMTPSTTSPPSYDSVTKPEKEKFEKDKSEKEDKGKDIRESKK
Experimental: Wild-type (WT) cDNA stably transfected in Chinese hamster ovary (CHO) cells is used to record INa. Unless otherwise noted, all reagents are purchased from Sigma-Aldrich (St Louis, Mo., U.S.A.).
Whole-cell voltage-clamp recordings are used to measure the biophysical properties of WT. […] Cells are allowed to stabilize for 10 min after establishment of the whole-cell configuration before current is measured. Series resistance is compensated 90% to assure that the command potential is reached within microseconds with a voltage error<2 mV. Leak currents are subtracted by using an online P/4 procedure and all currents are low-pass Bessel filtered at 5 kHz and digitized at 50 kHz.
For clarity, representative ramp currents are low pass filtered off-line at 50 Hz. Specific voltage-clamp protocols assessing channel activation, fast inactivation and availability during repetitive stimulation are used. Results are presented as mean±SEM.
Tonic block of peak current is measured using a step to −10 mV (20 ms) from a holding potential of −120 mV (0.2 Hz). Use-dependent block of peak current is measured during pulse number 300 of a pulse train (−10 mV, 5 ms, 300 pulses, 10 Hz or 25 Hz) from a holding potential of −120 mV. Two sequential pulse train stimulations are averaged to obtain mean current traces for each recording condition, which are then used for offline subtraction and analysis.
For use-dependent studies, cells are stimulated with depolarizing pulse trains (−10 mV, 5 ms, 300 pulses, 10 and 25 Hz) from a holding potential of −120 mV. Currents are then normalized to the peak current recorded in response to the first pulse in each frequency train. For tonic block studies, peak current is evaluated in response to a 20 ms depolarization to −10 mV (0.2 Hz). […] Results are presented as mean±SEM.
A stock solution of 10 mM compound of Formula I is prepared in 0.1 M HCl or DMSO. […] The final DMSO concentration was kept at 0.1% in all solutions. Direct application of the perfusion solution to the clamped cell is achieved using the Perfusion Pencil system (Automate, Berkeley, Calif.). Direct cell perfusion is driven by gravity at a flow rate of 350 μL/min using a 250 micron tip. This system sequesters the clamped cell within a perfusion stream and enables complete solution exchange within 1 second. The clamped cell is perfused continuously starting immediately after establishing the whole-cell configuration. Control currents are measured during control solution perfusion.
Solutions are perfused for three minutes prior to current recordings to allow equilibrium (tonic) drug block. Tonic block of peak currents is measured from this steady-state condition. Three sequential current traces are averaged to obtain a mean current for each recording. The mean current traces are utilized for offline analysis. Use-dependent block of peak current is measured during pulse number 300 of the pulse train, (−10 mV, 5 ms, 300 pulses, 10 Hz) from a holding potential of −120 mV.

[4] = HEK293, % Inhibition at 1 uM, read-out: Late INa*
[5] = HEK293, percent block of late INa, compound at 1 μM, 10 μM Tefluthrin, read-out: Late INa 1 μM

Chain of wild-type human cardiac sodium channel, hNav1.5 (Q14524 whole entry): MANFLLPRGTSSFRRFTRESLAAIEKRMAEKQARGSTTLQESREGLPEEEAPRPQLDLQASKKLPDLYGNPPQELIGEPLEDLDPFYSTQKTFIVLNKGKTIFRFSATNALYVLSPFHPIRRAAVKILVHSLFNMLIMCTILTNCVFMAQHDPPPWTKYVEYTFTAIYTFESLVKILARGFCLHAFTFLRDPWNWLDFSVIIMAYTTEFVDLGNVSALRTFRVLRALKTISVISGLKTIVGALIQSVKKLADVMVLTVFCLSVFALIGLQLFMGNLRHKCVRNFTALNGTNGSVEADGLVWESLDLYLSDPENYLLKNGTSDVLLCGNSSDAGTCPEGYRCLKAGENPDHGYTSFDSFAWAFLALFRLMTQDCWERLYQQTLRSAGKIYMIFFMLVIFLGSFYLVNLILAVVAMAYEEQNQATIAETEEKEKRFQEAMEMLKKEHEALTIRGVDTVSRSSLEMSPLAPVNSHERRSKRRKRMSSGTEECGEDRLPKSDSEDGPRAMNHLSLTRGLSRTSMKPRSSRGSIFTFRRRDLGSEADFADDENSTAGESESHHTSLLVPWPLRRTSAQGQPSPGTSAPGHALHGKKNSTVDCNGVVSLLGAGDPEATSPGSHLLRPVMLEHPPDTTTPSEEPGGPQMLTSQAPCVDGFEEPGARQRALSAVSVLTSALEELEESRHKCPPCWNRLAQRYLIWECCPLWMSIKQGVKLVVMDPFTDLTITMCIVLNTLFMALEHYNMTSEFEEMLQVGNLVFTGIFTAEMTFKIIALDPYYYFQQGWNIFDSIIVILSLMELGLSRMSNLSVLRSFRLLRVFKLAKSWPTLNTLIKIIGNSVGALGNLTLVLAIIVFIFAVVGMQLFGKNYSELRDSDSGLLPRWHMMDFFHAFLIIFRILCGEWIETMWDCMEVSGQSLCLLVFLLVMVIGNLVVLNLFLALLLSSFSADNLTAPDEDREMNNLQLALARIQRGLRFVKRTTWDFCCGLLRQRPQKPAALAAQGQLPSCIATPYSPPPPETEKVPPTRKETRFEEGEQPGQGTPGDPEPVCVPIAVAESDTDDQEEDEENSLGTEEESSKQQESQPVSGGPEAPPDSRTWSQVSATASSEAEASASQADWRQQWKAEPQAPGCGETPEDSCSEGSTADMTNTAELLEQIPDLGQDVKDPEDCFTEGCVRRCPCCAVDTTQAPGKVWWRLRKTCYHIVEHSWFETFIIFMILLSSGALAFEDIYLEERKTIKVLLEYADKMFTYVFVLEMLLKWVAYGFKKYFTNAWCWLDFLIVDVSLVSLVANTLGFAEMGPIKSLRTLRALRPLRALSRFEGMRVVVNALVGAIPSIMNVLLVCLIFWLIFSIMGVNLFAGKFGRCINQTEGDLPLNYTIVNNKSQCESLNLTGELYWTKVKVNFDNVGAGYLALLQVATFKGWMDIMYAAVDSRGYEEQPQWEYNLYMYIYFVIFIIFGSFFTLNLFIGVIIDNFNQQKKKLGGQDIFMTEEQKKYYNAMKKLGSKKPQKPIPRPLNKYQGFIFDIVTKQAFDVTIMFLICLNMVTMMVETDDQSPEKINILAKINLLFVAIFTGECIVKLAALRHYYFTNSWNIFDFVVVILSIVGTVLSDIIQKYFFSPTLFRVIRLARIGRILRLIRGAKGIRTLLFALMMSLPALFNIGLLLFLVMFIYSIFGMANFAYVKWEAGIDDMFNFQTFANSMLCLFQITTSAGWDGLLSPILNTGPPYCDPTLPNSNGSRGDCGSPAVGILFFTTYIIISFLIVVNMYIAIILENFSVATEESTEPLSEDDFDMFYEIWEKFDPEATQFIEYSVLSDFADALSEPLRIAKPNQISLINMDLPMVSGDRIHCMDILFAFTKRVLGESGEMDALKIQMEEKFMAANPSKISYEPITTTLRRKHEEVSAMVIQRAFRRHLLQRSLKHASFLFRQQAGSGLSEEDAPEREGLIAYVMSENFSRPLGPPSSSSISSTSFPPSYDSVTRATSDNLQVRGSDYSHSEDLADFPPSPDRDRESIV

SMILES | inhibition at 1 µM [1, 4] | inhibition at 1 µM [1, 5] | inhibition at 1 µM [2] | inhibition at 1 µM [3] | IC50 ([2]; frequency of 10 Hz, read-out: IC50 block of hNav 1.1 peak INa) | IC50 ([2]; frequency of 25 Hz, read-out: IC50 block of hNav 1.1)
CC(C)(C)c1ccc(-c2ccc3c(c2)C(=O)N(Cc2ncccn2)CCO3)cc1 [II-98, 7-(4-tert-butylphenyl)-4-(pyrimidin-2-ylmethyl)-3,4-dihydrobenzo[f][1,4]oxazepin-5(2H)-one] | 39% | 39% | -1% | -8% |  | 
O=C1c2cc(-c3ccc(Cl)cc3)ccc2OCCN1Cc1ncccn1 [II-88, 7-(4-chlorophenyl)-4-(pyrimidin-2-ylmethyl)-3,4-dihydrobenzo[f][1,4]oxazepin-5(2H)-one] | 41% | 41% | -10% | -1% |  | 
O=C1c2cc(C#Cc3ccc(C(F)(F)F)cc3)ccc2OCCN1Cc1ncccn1 [VIII-6, 4-(pyrimidin-2-ylmethyl)-7-((4-(trifluoromethyl)phenyl)ethynyl)-3,4-dihydrobenzo[f][1,4]oxazepin-5(2H)-one] | 38% | 38% | 6% | 20% |  | 
O=C1c2cc(-c3ccc(C(F)(F)F)cc3Cl)ccc2OCCN1Cc1ncccn1 [II-110, 7-(2-chloro-4-(trifluoromethyl)phenyl)-4-(pyrimidin-2-ylmethyl)-3,4-dihydrobenzo[f][1,4]oxazepin-5(2H)-one] | 35% | 35% | -4% | -2% |  | 
O=C1c2cc(-c3ccc(OC(F)(F)F)cc3)ccc2OCCN1Cc1ncccn1 [II-73, 4-(pyrimidin-2-ylmethyl)-7-(4-(trifluoromethoxy)phenyl)-3,4-dihydrobenzo[f][1,4]oxazepin-5(2H)-one] | 42% | 42% |  | 19% | > 100 µM | 3.4 µM
O=C1c2cc(-c3ccc(C(F)(F)F)cc3)ccc2OCCN1Cc1cn2ccccc2n1 [II-129, 4-(imidazo[1,2-a]pyridin-2-ylmethyl)-7-(4-(trifluoromethyl)phenyl)-3,4-dihydrobenzo[f][1,4]oxazepin-5(2H)-one] | 33% | 33% | 8% | 7% |  | 
O=C1c2cc(-c3ccc(C(F)(F)F)cc3F)ccc2OCCN1Cc1ncccn1 [II-105, 7-(2-fluoro-4-(trifluoromethyl)phenyl)-4-(pyrimidin-2-ylmethyl)-3,4-dihydrobenzo[f][1,4]oxazepin-5(2H)-one] | 45% | 45% | -17% | 1% |  | 
O=C1c2cc(-c3ccc(Cl)cc3F)ccc2OCCN1Cc1ncccn1 [II-117, 7-(4-chloro-2-fluorophenyl)-4-(pyrimidin-2-ylmethyl)-3,4-dihydrobenzo[f][1,4]oxazepin-5(2H)-one] | 37% | 37% | -11% | -18% |  | 
O=C1CN(Cc2ccccc2)C(=O)c2cc(-c3ccc(C(F)(F)F)cc3)ccc2N1 [Compound X-8, 4-benzyl-7-(4-(trifluoromethyl)phenyl)-3,4-dihydro-1H-benzo[e][1,4]diazepine-2,5-dione] | 50% | 50% | -12% | -14% |  | 
O=C1c2cc(-c3ccc(C(F)(F)F)cc3)ccc2OC[C@H]2CN(CC(F)F)CCN12 [II-22, (R)-2-(2,2-difluoroethyl)-8-(4-(trifluoromethyl)phenyl)-3,4,12,12a-tetrahydro-1H-benzo[f]pyrazino[2,1-c][1,4]oxazepin-6(2H)-one] | 30% | 30% | 3% | 15% |  | 
O=C1c2cc(-c3ccc(C(F)(F)F)cc3)ccc2OC[C@H]2CN(CC(F)(F)F)CCN12 [II-83, (R)-2-(2,2,2-trifluoroethyl)-8-(4-(trifluoromethyl)phenyl)-3,4,12,12a-tetrahydro-1H-benzo[f]pyrazino[2,1-c][1,4]oxazepin-6(2H)-one] | 31% | 31% | -2% | 10% |  | 
O=C(c1ncccn1)N1CCOc2ccc(-c3ccc(OC(F)(F)F)cc3)cc2C1 [III-1, pyrimidin-2-yl(7-(4-(trifluoromethoxy)phenyl)-2,3-dihydrobenzo[f][1,4]oxazepin-4(5H)-yl)methanone] | 33% | 33% | -1% | -3% |  | 
O=C1c2cc(C#Cc3ccc(OC(F)(F)F)cc3)ccc2OCCN1Cc1ncccn1 [VIII-4, 4-(pyrimidin-2-ylmethyl)-7-((4-(trifluoromethoxy)phenyl)ethynyl)-3,4-dihydrobenzo[f][1,4]oxazepin-5(2H)-one] | 61% | 61% | 5% | 18% |  | 
